# Values joined by “and” are separate entries in the source; they are usually repeats but may differ in a detail not shown here. Equal values may be shown once. “Also recorded” adds a separate entry of the source.
# How the values were obtained:
# [1] = test system: phosphorylation of ALK, AKT, ERK, STAT3 in NCI-H3122 cells; assay: Western blot of ALK and downstream signaling phosphorylation; type: cell-based, human; details: 2 h incubation
# Description: (§1) In general, the cells were exposed to the drug and were harvested for western blot analysis. SDS-PAGE was used to separate the proteins of interest, which were then transferred to a nitrocellulose (NC) filtration membrane and soaked in a blocking solution [5% non-fat dry milk in tris-buffered saline with Tween 20 (TBST)] for 1 h at room temperature. Thereafter, the membrane was probed overnight with primary antibodies at 4℃ and washed three times with TBST. The corresponding secondary antibody diluent was added, incubated at room temperature for 1 h, and washed 3 times with TBST. After adding the enhanced chemiluminescence developer to the NC filtration membrane, it is developed in the imaging system (ChemiDoc™ XRS^+, BIO-RAD). See Supplementary Table 2 for details of the antibodies used.
# [2] = test system: phosphorylation of ROS1, AKT, ERK in NIH-3T3 (CD74-ROS1) cells; assay: Western blot of ROS1 and downstream signaling phosphorylation; type: cell-based; details: 2 h incubation
# Description: as §1
# (§2) It is reported that ROS1-mediated cell signaling pathways include RAS-RAF-MEK-ERK, PI3K-AKT-mTOR and JAK-STAT3 pathways. According to reports and the differences in the expression of signaling pathway proteins in different cells, the key signaling proteins in different signaling pathways were selected for research.
# [3] = test system: phosphorylation of ROS1, ERK, SHP-1 in Ba/F3 (SLC34A2-ROS1) cells; assay: as above; type: cell-based; details: 2 h incubation
# Description: as §1, §2
# [4] = Plasma protein binding rate (dialysis); type: in vitro ADME
# Description: At three test concentrations (0.2, 2 and 10 µM), the plasma protein binding rate of iruplinalkib is as follows (Fig. 3a). […] With the increase of concentration, the protein binding rates of iruplinalkib in rat plasma decreased gradually, showing a certain concentration dependence, and there was no concentration dependence of protein binding rate observed in other species plasma.
# CYP2B6 = assay: Hepatic enzyme induction in human hepatocytes (gene expression); type: in vitro ADME
# CYP3A4 = assay: as above; type: in vitro ADME
# Description: Human hepatocytes derived from three donors were used for evaluating for hepatic enzyme inducing activity. […] The gene expression related to cytochrome P450 isoenzyme CYP3A4 in hepatocytes of one of the three donors increased with iruplinalkib 1 µM.
# OATP1B1 = target: T1, OATP1B1 (Homo sapiens, UniProt Q9Y6L6); assay: Uptake substrate investigation in HEK293 cells expressing transporter; type: in vitro ADME; details: for Ratio of uptake transit activity / Uptake transport activity, Net value: OATP1B1-293 vs MOCK293
# T1 construct: No ESH6G27; host or cells: HEK293
# T1 sequence (Q9Y6L6 1-691): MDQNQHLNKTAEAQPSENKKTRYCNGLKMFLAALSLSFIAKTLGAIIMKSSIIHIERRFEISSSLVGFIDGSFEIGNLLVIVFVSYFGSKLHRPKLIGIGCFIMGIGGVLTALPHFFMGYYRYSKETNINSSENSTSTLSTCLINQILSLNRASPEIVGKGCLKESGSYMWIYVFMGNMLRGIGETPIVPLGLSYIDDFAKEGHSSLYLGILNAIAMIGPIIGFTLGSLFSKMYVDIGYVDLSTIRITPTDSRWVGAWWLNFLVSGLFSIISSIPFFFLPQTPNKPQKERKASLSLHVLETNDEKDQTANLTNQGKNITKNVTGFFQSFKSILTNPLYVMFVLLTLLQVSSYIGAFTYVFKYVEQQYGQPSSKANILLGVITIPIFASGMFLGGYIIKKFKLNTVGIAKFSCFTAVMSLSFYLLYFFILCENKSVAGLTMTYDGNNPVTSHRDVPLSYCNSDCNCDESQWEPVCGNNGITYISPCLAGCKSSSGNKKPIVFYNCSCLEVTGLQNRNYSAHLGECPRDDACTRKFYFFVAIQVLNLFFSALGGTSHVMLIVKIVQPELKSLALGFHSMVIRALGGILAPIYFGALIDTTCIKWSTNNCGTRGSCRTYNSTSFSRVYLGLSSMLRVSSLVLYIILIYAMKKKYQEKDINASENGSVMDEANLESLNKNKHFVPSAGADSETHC
# Description: The engineered NIH-3T3 (CD74-ROS1 fusion gene) cells was obtained from Nanjing GenScript Biotechnology Co., Ltd. The engineered Ba/F3 (SLC34A2-ROS1 fusion gene) cell line was obtained from Kyinno Biotechnology (Beijing) Co., Ltd. The HCC-78 (SLC34A2-ROS1 fusion gene) cell line was purchased from Shanghai Hongshun Biotechnology Co., Ltd. The engineered NIH-3T3 (CD74-ROS1 fusion gene) cells was obtained from Nanjing GenScript Biotechnology Co., Ltd. The engineered HEK293 cell lines with OATP1B1 (Lot. No ESH6G27), OATP1B3 (Lot. No ESH7G27), OCT2 (Lot. No ESH9G27), OAT1 (Lot. No ESHCG27), OAT3 (Lot. […] No ESHDG27) were purchased from GenoMembrane and validated using the specific substrate for each transporter. All cells were cultured at 37℃ in a 5% CO2 atmosphere. Cell culture reagents were obtained from Life Technologies, Inc. See Supplemental Table 1 for details on the source of the cell lines and the media used.
# MATE2K = target: T2, MATE2K (Homo sapiens, UniProt Q86VL8); type: in vitro ADME
# T2 construct: No ESHDG27; host or cells: HEK293
# [5] = design: method as in PMID 35087031; details: 180 mg, once daily, patients; cited from earlier work
# [6] = 10 µM, human hepatocytes from three donors
# [7] = MOCK293, test substrate 10 μM, no inhibitor, pre-test
# [8] = OATP1B1-293, test substrate 10 μM, no inhibitor, pre-test
# [9] = test substrate 10 μM, no inhibitor, pre-test
# T2 sequence (Q86VL8 1-566 isoform Q86VL8-3): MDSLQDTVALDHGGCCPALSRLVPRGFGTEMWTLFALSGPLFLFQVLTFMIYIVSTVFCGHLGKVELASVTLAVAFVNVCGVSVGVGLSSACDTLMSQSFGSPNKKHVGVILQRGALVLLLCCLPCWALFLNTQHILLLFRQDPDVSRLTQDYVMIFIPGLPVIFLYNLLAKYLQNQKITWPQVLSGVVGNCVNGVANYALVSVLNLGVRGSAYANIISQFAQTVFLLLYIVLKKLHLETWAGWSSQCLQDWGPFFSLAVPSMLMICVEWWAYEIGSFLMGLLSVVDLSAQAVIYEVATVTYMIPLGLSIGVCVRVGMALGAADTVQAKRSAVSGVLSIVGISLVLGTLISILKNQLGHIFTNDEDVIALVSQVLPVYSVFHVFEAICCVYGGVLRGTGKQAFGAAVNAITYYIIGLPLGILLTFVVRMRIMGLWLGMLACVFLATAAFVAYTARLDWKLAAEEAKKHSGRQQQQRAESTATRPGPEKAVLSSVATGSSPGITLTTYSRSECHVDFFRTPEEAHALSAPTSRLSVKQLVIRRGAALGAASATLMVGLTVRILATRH
smiles,measurement,setting,value
COc1cc(N2CCC3(CCN(C)CC3)CC2)ccc1Nc1ncc(Cl)c(Nc2ccccc2P(C)(C)=O)n1 [Iruplinalkib],phosphorylation level of STAT3,[1],not STAT3
same,"phosphorylation levels of ALK, AKT, ERK",[1],reduced
same,"phosphorylation levels of ROS1, AKT, ERK",[2],inhibited
same,"phosphorylation levels of ROS1, ERK, SHP-1",[3],inhibited
same,plasma protein binding rate,"[4]; 0.2 µM, SD rats plasma",high protein binding rate
same,plasma protein binding rate,"[4]; 0.2, 2 and 10 µM, Beagle dogs plasma",medium protein binding rate
same,plasma protein binding rate,"[4]; 0.2, 2 and 10 µM, CD-1 mice plasma",medium protein binding rate
same,plasma protein binding rate,"[4]; 0.2, 2 and 10 µM, Macaca fascicularis plasma",medium protein binding rate
same,plasma protein binding rate,"[4]; 0.2, 2 and 10 µM, SD rats plasma",medium protein binding rate
same,plasma protein binding rate,"[4]; 0.2, 2 and 10 µM, human plasma",medium protein binding rate; also recorded: moderate
same,inducer of CYP2B6,CYP2B6; [6],not an inducer
same,"CYP2B6 gene expression, folds of expression","CYP2B6; donor 1, 0.1 µM",0.798 fold
same,"CYP2B6 gene expression, folds of expression","CYP2B6; donor 1, 1 µM",1.36 fold
same,"CYP2B6 gene expression, folds of expression","CYP2B6; donor 1, 10 µM",2.62 fold
same,"CYP2B6 gene expression, folds of expression","CYP2B6; donor 2, 0.1 µM",0.862 fold
same,"CYP2B6 gene expression, folds of expression","CYP2B6; donor 2, 1 µM",0.926 fold
same,"CYP2B6 gene expression, folds of expression","CYP2B6; donor 2, 10 µM",4.02 fold
same,"CYP2B6 gene expression, folds of expression","CYP2B6; donor 3, 0.1 µM",0.526 fold
same,"CYP2B6 gene expression, folds of expression","CYP2B6; donor 3, 1 µM",1.13 fold
same,"CYP2B6 gene expression, folds of expression","CYP2B6; donor 3, 10 µM",0.602 fold
same,inducer of CYP3A4,CYP3A4; [6],not an inducer
same,induction multiples of CYP3A4 gene expression,"CYP3A4; donor 1, 0.1 µM",0.621 fold
same,induction multiples of CYP3A4 gene expression,"CYP3A4; donor 1, 1 µM",2.99 fold
same,induction multiples of CYP3A4 gene expression,"CYP3A4; donor 1, 10 µM",2.38 fold
same,induction multiples of CYP3A4 gene expression,"CYP3A4; donor 2, 0.1 µM",0.879 fold
same,induction multiples of CYP3A4 gene expression,"CYP3A4; donor 2, 1 µM",1.80 fold
same,induction multiples of CYP3A4 gene expression,"CYP3A4; donor 2, 10 µM",2.81 fold
same,induction multiples of CYP3A4 gene expression,"CYP3A4; donor 3, 0.1 µM",0.964 fold
same,induction multiples of CYP3A4 gene expression,"CYP3A4; donor 3, 1 µM",9.36 fold
same,induction multiples of CYP3A4 gene expression,"CYP3A4; donor 3, 10 µM",1.86 fold
same,"uptake transport activity ratio, OATP1B1","OATP1B1; 30 µM, 3 µM, 0.3 µM, HEK293",less than two
same,uptake substrate of OATP1B1,OATP1B1; HEK293,not an uptake substrate
same,"Uptake transport activity, Mean","OATP1B1; MOCK293 (OATP1B1 set), 0.3 μM, Suppl. Table 11",7.468 pmol/mg protein/min
same,"Uptake transport activity, Mean","OATP1B1; MOCK293 (OATP1B1 set), 3 μM, Suppl. Table 11",54.18 pmol/mg protein/min
same,"Uptake transport activity, Mean","OATP1B1; MOCK293 (OATP1B1 set), 30 μM, Suppl. Table 11",601.2 pmol/mg protein/min
same,"Uptake transport activity, Mean",OATP1B1; [7],102.0 pmol/mg protein/min
same,"Uptake transport activity, Repeat 1 / Repeat 2",OATP1B1; [7],100.4 pmol/mg protein/min and 103.6 pmol/mg protein/min
same,"Uptake transport activity, Mean","OATP1B1; OATP1B1-293, 0.3 μM, Suppl. Table 11",8.227 pmol/mg protein/min
same,"Uptake transport activity, Mean","OATP1B1; OATP1B1-293, 3 μM, Suppl. Table 11",46.74 pmol/mg protein/min
same,"Uptake transport activity, Mean","OATP1B1; OATP1B1-293, 30 μM, Suppl. Table 11",564.7 pmol/mg protein/min
same,"Uptake transport activity, Mean",OATP1B1; [8],55.08 pmol/mg protein/min
same,"Uptake transport activity, Repeat 1 / Repeat 2",OATP1B1; [8],50.74 pmol/mg protein/min and 59.41 pmol/mg protein/min
same,Ratio of uptake transit activity,"OATP1B1; 0.3 μM, Suppl. Table 11",1.10
same,"Uptake transport activity, Net value","OATP1B1; 0.3 μM, Suppl. Table 11",0.759 pmol/mg protein/min
same,Ratio of uptake transit activity,"OATP1B1; 3 μM, Suppl. Table 11",0.86
same,"Uptake transport activity, Net value","OATP1B1; 3 μM, Suppl. Table 11",-7.440 pmol/mg protein/min
same,Ratio of uptake transit activity,"OATP1B1; 30 μM, Suppl. Table 11",0.94
same,"Uptake transport activity, Net value","OATP1B1; 30 μM, Suppl. Table 11",-36.47 pmol/mg protein/min
same,Ratio of uptake transit activity,OATP1B1; [9],0.54
same,"Uptake transport activity, Net value",OATP1B1; [9],-46.9 pmol/mg protein/min
same,inhibition of MATE2K,MATE2K,stronger inhibitor
same,"free steady-state average concentration (Cavg,ss)",[5],127 nM
